Results published in the supplement of paper PMC10307832.

Experiments:
Experiment in all cases: relative viability (nuclei count vs DMSO), 5 days (fraction); higher = more cells survive
[1] = compound: CC(C)CCN1c2nc(Nc3cc(F)c(O)c(F)c3)ncc2N(C)C(=O)C1C [BI-D1870] + COc1cccc2cc(-c3nc([C@H]4CC[C@H](C(=O)O)CC4)n4ncnc(N)c34)[nH]c12 [OSI-027] (partner 0.5 µM)
Outline: (§1)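 For relative viability, nuclei counts in treated wells were divided by those in vehicle wells. Lung cancer cell lines had been pin-tool dosed in 1536-well plates the day after seeding and cultured for 5 days, then fixed and stained in one step (final 0.05% Triton X-100, 1% formaldehyde, 1 ug/ml Hoechst) and imaged at 4×. Doses were one drug alone or a fixed anchor-drug dose plus five library-drug doses (not always all listed) in √10 steps, and values are duplicate-plate medians.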

[2] = compound: CC(C)CCN1c2nc(Nc3cc(F)c(O)c(F)c3)ncc2N(C)C(=O)C1C [BI-D1870] + Cc1cc(Nc2cc(N3CCN(C)CC3)nc(Sc3ccc(NC(=O)C4CC4)cc3)n2)n[nH]1 [Tozasertib] (partner 0.1 µM)
Outline: as §1

[3] = compound: CC(C)CCN1c2nc(Nc3cc(F)c(O)c(F)c3)ncc2N(C)C(=O)C1C [BI-D1870] + NC(=O)Nc1cc(-c2cccc(F)c2)sc1C(=O)N[C@H]1CCCNC1 [AZD7762] (partner 0.2 µM)
Outline: as §1

[4] = compound: O=c1ncccn1[C@@H]1O[C@H](CO)[C@@H](O)[C@H]1O [Zebularine] + Cc1nc(NC(=O)N2CCC[C@H]2C(N)=O)sc1-c1ccnc(C(C)(C)C(F)(F)F)c1 [Alpelisib] (partner 2 µM)
Outline: as §1

| Cell Line | relative viability ([1]; first compound 0.04 µM) | relative viability ([1]; first compound 0.1265 µM) | relative viability ([1]; first compound 0.4 µM) | relative viability ([1]; first compound 1.265 µM) | relative viability ([1]; first compound 4 µM) | relative viability ([2]; first compound 0.04 µM) | relative viability ([2]; first compound 0.1265 µM) | relative viability ([2]; first compound 0.4 µM) | relative viability ([2]; first compound 1.265 µM) | relative viability ([2]; first compound 4 µM) | relative viability ([3]; first compound 0.04 µM) | relative viability ([3]; first compound 0.1265 µM) | relative viability ([3]; first compound 0.4 µM) | relative viability ([3]; first compound 1.265 µM) | relative viability ([3]; first compound 4 µM) | relative viability ([4]; first compound 1 µM) | relative viability ([4]; first compound 3.162 µM) | relative viability ([4]; first compound 31.62 µM) | relative viability ([4]; first compound 100 µM) | relative viability ([4]; first compound 10 µM) |
| --- | --- | --- | --- | --- | --- | --- | --- | --- | --- | --- | --- | --- | --- | --- | --- | --- | --- | --- | --- | --- |
| NCI-H1651 | 0.738 | 0.608 | 0.668 | 0.753 | 0.63 | 0.9 | 0.487 | 0.784 | 0.647 | 0.344 | 0.511 | 0.491 | 0.395 | 0.465 | 0.403 | 0.875 | 1.05 | 0.769 | 0.527 |  |
| NCI-H1755 | 0.705 | 0.714 | 0.651 | 0.847 | 0.683 | 0.59 | 0.551 | 0.518 | 0.513 | 0.531 | 0.417 | 0.412 | 0.407 | 0.486 | 0.404 | 1.07 | 1.03 | 0.92 | 0.61 | 0.538 |
| HARA | 0.616 | 0.417 | 0.503 | 0.608 | 0.421 | 0.129 | 0.101 | 0.128 | 0.139 | 0.0974 | 0.442 | 0.307 | 0.263 | 0.318 | 0.297 | 1.01 | 0.804 | 0.818 | 0.572 |  |
| NCI-H596 | 0.797 | 0.704 | 0.95 | 0.572 | 0.5 | 0.953 | 0.82 | 0.901 | 0.81 | 0.905 | 1.23 | 0.9 | 1.04 | 1.16 | 0.933 | 0.476 | 0.462 | 0.566 | 0.483 | 0.427 |
| NCI-H23 | 0.782 | 0.525 | 0.463 | 0.547 | 0.344 | 0.433 | 0.26 | 0.267 | 0.314 | 0.214 | 0.337 | 0.224 | 0.23 | 0.192 | 0.243 | 0.577 | 0.709 | 0.775 | 0.563 |  |
| LCLC-97TM1 | 0.682 | 0.61 | 0.557 | 0.727 | 0.472 | 0.302 | 0.289 | 0.221 | 0.225 | 0.186 | 0.194 | 0.317 | 0.174 | 0.368 | 0.335 | 0.23 | 0.224 | 0.12 | 0.112 | 0.193 |
| EPLC-272H | 0.263 | 0.218 | 0.272 | 0.278 | 0.204 | 0.37 | 0.242 | 0.232 | 0.247 | 0.238 | 0.207 | 0.17 | 0.257 | 0.21 | 0.255 | 0.975 |  | 0.828 | 0.776 |  |
| NCI-H1915 | 0.665 | 0.516 | 0.591 | 0.476 | 0.411 | 0.466 | 0.395 | 0.389 | 0.427 | 0.313 | 0.706 | 0.636 | 0.665 | 0.7 | 0.616 | 1.18 | 1.05 | 1.05 | 0.93 | 0.984 |
